Legend:
presenescent fibroblasts = test: Mitochondrial membrane potential of presenescent fibroblasts (dye ratio λ520/λ590); format: cell-based; conditions: 120 ppm
Text: It is possible to measure the membrane potential through a specific membrane dye. Depending on the level of the membrane potential, this dye is rather present as monomer (emission fluorescence at 520 nm) or rather in the multimetric form (fluorescence emission at 590 nm). High membrane potential promotes a multimetric form.
The ratio λ520/λ590 varies inversely with the membrane potential. The lower the ratio is, the higher the membrane potential is. The increase in the ratio thus reflects a decrease in membrane potential. The ratio λ520/λ590 for young and proliferating cells is 2.97+/−0.17.
[…] After this period, the membrane potential of half of the cultures was measured.
The other half of the cultures underwent an oxidative stress (hydrogen peroxide) before measuring their membrane potential.

fibroblasts (FHN) = test: Intracellular peroxide level (DCFH-DA probe) in fibroblasts after SIPS; format: cell-based, human; conditions: 120 ppm
Method: Principle: Fibroblasts at confluence contacted or not with the GGP for several days, are subjected to oxidative stress by hydrogen peroxide in the presence or absence of the GGP. This stress is intended to induce premature senescence in cells.
After this initial stress, the cells were detached from the support and returned to culture at low density until confluence. They are then contacted or not with the compound of the invention for 24 hours. At this stage, each set of cultures (with or without the tested compounds) is divided into 2 lots. A first batch (not stressed) is evaluated directly for its concentration of intracellular peroxides (using the probe DCFH-DA). Simultaneously, the other batch (stressed) undergoes a second stress by hydrogen peroxide (weaker than the first) just before being evaluated in the same way regarding the concentration of intracellular peroxides.
The amount of fluorescence measured with this probe is directly proportional to the amount of peroxides present in the cells.

[1] = ORAC test (Oxygen-Radical Absorbance Capacity): fluorescein degradation by peroxyl radicals; format: biochemical; conditions: positive control, 10μ
Text: Principle: the ORAC test (“Oxygen-Radical Absorbance Capacity”) measures degradation by the oxidative way of a fluorescent molecule (fluorescein). Degradation of fluorescein by peroxyl radicals generated by AAPH (2,2′-azobis (2-amidinopropane) dichloride) induces a decrease in fluorescence measured by a spectrofluorometer during a degradation kinetic.
An antioxidant protects this fluorescein against this radical degradation. The decrease in fluorescence will be smaller and slower in the presence of the antioxidant than in its absence. The comparison between the parameters of the two kinetics makes it possible to calculate a percentage of protection against free radical degradation.

human dermal fibroblasts = test: Senescence associated β-galactosidase activity in fibroblasts after oxidising stress (FDG fluorimetry); format: cell-based; conditions: 120 ppm; positive control
Method: Principle: Proliferative human dermal fibroblasts were contacted or not with the GGP for 72 hours in a growth medium. After this first incubation, the cells were subjected for 5 days to an oxidative stress daily, one hour each, in a basic medium, common to all cultures. This stress is known to create a SIPS and to induce a strong increase in β-galactosidase activity in the stressed culture compared to an unstressed culture. Between two stress cells are returned to the growth medium with or without the substance tested. After the fifth stress, β-galactosidase activity is evaluated.
Evaluation of β-galactosidase activity is done after fixing the layers. They are put in contact with a substrate of β-galactosidase nonfluorescent FDG (fluorescein di-β-galactopyranoside), which will release a fluorescent compound upon hydrolysis by β-galactosidase. The emitted fluorescence is quantified in a fluorometer. It will increase with the amount of senescent cells present in culture. The relative activity of β-galactosidase thus found is 2974+/−957 UFA/million cells in a proliferative culture and increases by a factor 5 (p<0.01) in a culture little to not proliferative.

hyaluronic acid = test: Hyaluronic acid synthesis in human fibroblasts; format: cell-based; conditions: 10^−6%; positive control
Method: Principle: Human dermal fibroblasts were grown in plate for 24 hours. The cells are then placed in contact or not with GGP for 24 hours. Culture supernatants were collected and assayed for the amount of hyaluronic acid (HA) is then divided by the number of cells present on the layer. TGF-β1 is used as a positive control.

collagen I = test: Collagen I synthesis in presenescent fibroblasts (immunofluorescence, image analysis); format: cell-based, human; conditions: 10^−6%; positive control
Method: Principle: The collagen I synthesis was monitored in pre-senescent human dermal fibroblasts. These cells were cultured for 11 days with the GGP in a growth medium. Following this incubation, the cell layers were fixed and labeled by immunofluorescence, to visualize the network of collagen I and to quantify by image analysis on photographs. In parallel, quantification was performed on proliferating cells.

human melanocytes = test: Melanin content of human melanocytes; format: cell-based; conditions: 0.03%; positive control
Method: (§1) Principle: Human melanocytes are seeded and placed in contact with the GGP for 5 days. After incubation, the residual tyrosinase activity and total melanin content were measured in cell homogenates, and then divided by the number of cells (melanin) or to the protein amount (tyrosinase).

tyrosinase = target: T1, tyrosinase (Homo sapiens, UniProt P14679); test: Residual tyrosinase activity in human melanocytes; format: cell-based; conditions: 0.03%; positive control
T1 construct: endogenous in cells; host or cells: human melanocytes
T1 sequence (P14679 19-529): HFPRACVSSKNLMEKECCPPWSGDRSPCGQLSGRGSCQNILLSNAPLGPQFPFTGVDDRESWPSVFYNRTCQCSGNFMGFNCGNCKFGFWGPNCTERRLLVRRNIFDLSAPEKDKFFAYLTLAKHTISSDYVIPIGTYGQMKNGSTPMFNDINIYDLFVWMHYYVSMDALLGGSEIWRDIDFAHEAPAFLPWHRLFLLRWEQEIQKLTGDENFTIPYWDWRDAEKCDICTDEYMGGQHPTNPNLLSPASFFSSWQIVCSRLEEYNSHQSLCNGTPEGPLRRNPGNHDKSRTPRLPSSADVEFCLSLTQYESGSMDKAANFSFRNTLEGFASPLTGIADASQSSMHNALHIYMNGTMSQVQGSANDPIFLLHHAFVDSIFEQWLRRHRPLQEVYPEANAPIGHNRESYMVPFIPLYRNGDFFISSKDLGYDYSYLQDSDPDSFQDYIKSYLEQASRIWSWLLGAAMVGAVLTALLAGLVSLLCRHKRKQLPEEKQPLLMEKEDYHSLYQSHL
Method: as §1

[2] = SIPS fibroblasts subjected to a second oxidant stress

Cc1c(C)c2c(c(C)c1O)CCC(C)(C(=O)O)O2 (stereo not drawn) [Trolox, reference compound]
% of protection of the respiration potential (presenescent fibroblasts; no stress): +44%; nsd
ΔΨ loss with regard to non stressed young cells (presenescent fibroblasts; one week, no stress): 0.80 +/− 0.52
Improvement of the respiration potential (presenescent fibroblasts; with oxidative stress): +43%; p < 0.05
ΔΨ loss with regard to non stressed young cells (presenescent fibroblasts; with oxidative stress (hydrogen peroxide)): 3.18 +/− 1.16
Change with regard to non stressed young cells (presenescent fibroblasts; with oxidative stress, control −100%): −57%
% Change/Control of endogen peroxides (fibroblasts (FHN); [2]): −85%; p < 0.01
Endogen peroxides (fibroblasts (FHN); [2]): 158 +/− 7 UFA/million of cells
% Change/Control of endogen peroxides (fibroblasts (FHN); after SIPS, not stressed again): −43%; p < 0.01
Endogen peroxides (fibroblasts (FHN); after SIPS, not stressed again): 57.5 +/− 3.8 UFA/million of cells
% of protection [1]: Positive control = Trolox 10μ = 94% (p < 0.01)
Change with regard to control (β-galactosidase) (human dermal fibroblasts): Positive control: Trolox 120 ppm = −45% (p < 0.05)

TGF-β: TGF-β1 is used as a positive control [reference compound]
% of change of hyaluronic acid vs control (hyaluronic acid): Positive control: TGF-β1 à 10^−6%: +206% (p < 0.01)
collagen I synthesis, factor vs control (collagen I): Positive control: TGF-β at 10^−6%: ×8.3 times

OC[C@H]1O[C@@H](Oc2ccc(O)cc2)[C@H](O)[C@@H](O)[C@@H]1O [Arbutine, reference compound]
Change (%) of melanin content vs control (human melanocytes): −40%
Change (%) of tyrosinase activity vs control (tyrosinase): −33%

Reference: patent publication US9126060B2, “Cosmetic use of geranylgeranyl-2-propanol” (SEDERMA, priority 2010, dated 2015)
